The compounds below were run against KRas G12C (Homo sapiens, UniProt P01116, G12C) (assay: Cellular inhibition of KRas G12C measured by Phospho-ERK in NCI-H358 cells). Conditions: pERK(Thr202/Tyr204) normalized with GAPDH, NCI-H358 cells, 3 hours; read-out: IC50.
KRas G12C, sequence (P01116 1-188 isoform P01116-2 G12C): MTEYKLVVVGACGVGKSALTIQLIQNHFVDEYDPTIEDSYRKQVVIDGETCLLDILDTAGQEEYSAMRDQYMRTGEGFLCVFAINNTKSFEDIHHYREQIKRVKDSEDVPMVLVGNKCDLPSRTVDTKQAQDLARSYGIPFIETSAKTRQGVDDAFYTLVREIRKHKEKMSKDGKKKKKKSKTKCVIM
Assay type: cell-based
In short: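 NCI-H358 cells treated 3 h with compound (0.5% DMSO final), then fixed and methanol-permeabilised. In-cell immunofluorescence measured pERK(Thr202/Tyr204) normalised to GAPDH as percent of DMSO control. IC50 from a 4-parameter dose-response fit.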
For `C=CC(=O)N1CCN(c2ncnc3c2CCN(c2cncc4ccccc24)C3)CC1` [Example 69, 1-(4-(7-(isoquinolin-4-yl)-5,6,7,8-tetrahydropyrido[3,4-d]pyrimidin-4-yl)piperazin-1-yl)prop-2-en-1-one], the IC50 was > 1000 nM.
`C=CC(=O)N1CCN(c2nc(OC(C)CNC)nc3c2CCN(c2cc(O)cc4ccccc24)C3)CC1` (centres unmarked) [Example 70, 1-(4-(7-(3-hydroxynaphthalen-1-yl)-2-((1-(methylamino)propan-2-yl)oxy)-5,6,7,8-tetrahydropyrido[3,4-d]pyrimidin-4-yl)piperazin-1-yl)prop-2-en-1-one] was tested, and the IC50 was > 1000 nM.
For `C=CC(=O)N1CCN(c2ncnc3c2CCN(C(CO)c2ccccc2)C3)CC1` (centres unmarked) [Example 71, 1-(4-(7-(2-hydroxy-1-phenylethyl)-5,6,7,8-tetrahydropyrido[3,4-d]pyrimidin-4-yl)piperazin-1-yl)prop-2-en-1-one], the IC50 was > 1000 nM.
In the case of `C=CC(=O)N1CCN(c2nc(OCC3CCCN(C)C3)nc3c2CCN(c2cc(O)cc4ccccc24)C3)CC1` (centres unmarked) [Example 72], the IC50 is reported as 0.1 to 1000 nM.
In the case of `C=CC(=O)N1CCN(c2nc(OCC(C)N(C)C)nc3c2CCN(c2cc(O)cc4ccccc24)C3)CC1` (centres unmarked) [Example 73, 1-(4-(2-(2-(dimethylamino)propoxy)-7-(3-hydroxynaphthalen-1-yl)-5,6,7,8-tetrahydropyrido[3,4-d]pyrimidin-4-yl)piperazin-1-yl)prop-2-en-1-one], the IC50 is reported as > 1000 nM.
In the case of `C=CC(=O)N1CCN(c2nc(OCCCN3CCOCC3)nc3c2CCN(c2cc(O)cc4ccccc24)C3)CC1` [Example 74, 1-(4-(7-(3-hydroxynaphthalen-1-yl)-2-(3-morpholinopropoxy)-5,6,7,8-tetrahydropyrido[3,4-d]pyrimidin-4-yl)piperazin-1-yl)prop-2-en-1-one], the IC50 is reported as 0.1 to 1000 nM.
With `C=CC(=O)N1CCN(c2nc(O[C@H](C)CN3CCCCC3)nc3c2CCN(c2cc(O)cc4ccccc24)C3)CC1` [Example 75, (R)-1-(4-(7-(3-hydroxynaphthalen-1-yl)-2-((1-(piperidin-1-yl)propan-2-yl)oxy)-5,6,7,8-tetrahydropyrido[3,4-d]pyrimidin-4-yl)piperazin-1-yl)prop-2-en-1-one] the IC50 was 0.1 to 1000 nM.
In the case of `C=CC(=O)N1CCN(c2nc(O[C@H](C)CN(C)C)nc3c2CCN(c2cc(O)cc(Cl)c2C(C)C)C3)CC1` [Example 76, (R)-1-(4-(7-(3-chloro-5-hydroxy-2-isopropylphenyl)-2-((1-(dimethylamino)propan-2-yl)oxy)-5,6,7,8-tetrahydropyrido[3,4-d]pyrimidin-4-yl)piperazin-1-yl)prop-2-en-1-one], the IC50 is reported as > 1000 nM.
Compound `C=CC(=O)N1CCN(c2nc(OCCN3C[C@@H]4CC[C@H]3C4)nc3c2CCN(c2cc(O)cc4ccccc24)C3)CC1` [Example 77, 1-(4-(2-(2-((1S,4R)-2-azabicyclo[2.2.1]heptan-2-yl)ethoxy)-7-(3-hydroxynaphthalen-1-yl)-5,6,7,8-tetrahydropyrido[3,4-d]pyrimidin-4-yl)piperazin-1-yl)prop-2-en-1-one] has an IC50 of 0.1 to 1000 nM.
For `C=CC(=O)N1CCN(c2nc(O[C@H](C)CN(C)C)nc3c2CCN(c2cc(O)ccc2OC(F)(F)F)C3)CC1` [Example 78, (R)-1-(4-(2-((1-(dimethylamino)propan-2-yl)oxy)-7-(5-hydroxy-2-(trifluoromethoxy)phenyl)-5,6,7,8-tetrahydropyrido[3,4-d]pyrimidin-4-yl)piperazin-1-yl)prop-2-en-1-one], the IC50 was > 1000 nM.
In the case of `C=CC(=O)N1CCN(c2nc(O[C@H](C)CN(C)C)nc3c2CCN(c2cc(O)ccc2C(F)(F)F)C3)CC1` [Example 79, (R)-1-(4-(2-((1-(dimethylamino)propan-2-yl)oxy)-7-(5-hydroxy-2-(trifluoromethyl)phenyl)-5,6,7,8-tetrahydropyrido[3,4-d]pyrimidin-4-yl)piperazin-1-yl)prop-2-en-1-one], the IC50 is reported as > 1000 nM.
For `C=CC(=O)N1CCN(c2nc(OCC3CN(C)CCN3)nc3c2CCN(c2cc(O)cc4ccccc24)C3)CC1` (centres unmarked) [Example 80, 1-(4-(7-(3-hydroxynaphthalen-1-yl)-2-((4-methylpiperazin-2-yl)methoxy)-5,6,7,8-tetrahydropyrido[3,4-d]pyrimidin-4-yl)piperazin-1-yl)prop-2-en-1-one], the IC50 was > 1000 nM.
In the case of `C=CC(=O)N1CCN(c2nc(OCCN3CCC(C#N)CC3)nc3c2CCN(c2cc(O)cc4ccccc24)C3)CC1` [Example 81, 1-(2-((4-(4-acryloylpiperazin-1-yl)-7-(3-hydroxynaphthalen-1-yl)-5,6,7,8-tetrahydropyrido[3,4-d]pyrimidin-2-yl)oxy)ethyl)piperidine-4-carbonitrile], the IC50 is reported as > 1000 nM.
`C=CC(=O)N1CCN(c2nc(OCCCN3CCN(C)CC3)nc3c2CCN(c2cc(O)cc4ccccc24)C3)CC1` [Example 82, 1-(4-(7-(3-hydroxynaphthalen-1-yl)-2-(3-(4-methylpiperazin-1-yl)propoxy)-5,6,7,8-tetrahydropyrido[3,4-d]pyrimidin-4-yl)piperazin-1-yl)prop-2-en-1-one] was tested, and the IC50 was 0.1 to 1000 nM.
`C=CC(=O)N1CCN(c2nc(OCCN(C)CCO)nc3c2CCN(c2cc(O)cc4ccccc24)C3)CC1` [Example 83, 1-(4-(2-(2-((2-hydroxyethyl)(methyl)amino)ethoxy)-7-(3-hydroxynaphthalen-1-yl)-5,6,7,8-tetrahydropyrido[3,4-d]pyrimidin-4-yl)piperazin-1-yl)prop-2-en-1-one] was tested, and the IC50 was > 1000 nM.
For `C=CC(=O)N1CCN(c2nc(O[C@H](C)CN(C)C)nc3c2CCN(c2c(O)ccc(C)c2F)C3)CC1` [Example 84, (R)-1-(4-(2-((1-(dimethylamino)propan-2-yl)oxy)-7-(2-fluoro-6-hydroxy-3-methylphenyl)-5,6,7,8-tetrahydropyrido[3,4-d]pyrimidin-4-yl)piperazin-1-yl)prop-2-en-1-one], the IC50 was > 1000 nM.
`C=CC(=O)N1CCN(c2nc(OCCN3CCCC3)nc3c2CCN(c2cc(O)cc4ccccc24)C3)CC1` [Example 85, 1-(4-(7-(3-hydroxynaphthalen-1-yl)-2-(2-(pyrrolidin-1-yl)ethoxy)-5,6,7,8-tetrahydropyrido[3,4-d]pyrimidin-4-yl)piperazin-1-yl)prop-2-en-1-one] was tested, and the IC50 was > 1000 nM.
With `C=CC(=O)N1CCN(c2nc(O[C@H](C)CN(C)C)nc3c2CCN(c2cc(OC(F)(F)F)ccc2O)C3)CC1` [Example 86, (R)-1-(4-(2-((1-(dimethylamino)propan-2-yl)oxy)-7-(2-hydroxy-5-(trifluoromethoxy)phenyl)-5,6,7,8-tetrahydropyrido[3,4-d]pyrimidin-4-yl)piperazin-1-yl)prop-2-en-1-one] the IC50 was > 1000 nM.
`C=CC(=O)N1CCN(c2nc(O[C@H](C)CN(C)C)nc3c2CCN(c2c(C)ccc(F)c2O)C3)CC1` [Example 87, (R)-1-(4-(2-((1-(dimethylamino)propan-2-yl)oxy)-7-(3-fluoro-2-hydroxy-6-methylphenyl)-5,6,7,8-tetrahydropyrido[3,4-d]pyrimidin-4-yl)piperazin-1-yl)prop-2-en-1-one] was tested, and the IC50 was > 1000 nM.
`C=CC(=O)N1CCN(c2nc(OCCN3CCCC[C@@H]3C)nc3c2CCN(c2cc(O)cc4ccccc24)C3)CC1` [Example 88, (S)-1-(4-(7-(3-hydroxynaphthalen-1-yl)-2-(2-(2-methylpiperidin-1-yl)ethoxy)-5,6,7,8-tetrahydropyrido[3,4-d]pyrimidin-4-yl)piperazin-1-yl)prop-2-en-1-one] gave an IC50 of 0.1 to 1000 nM.
